pIC50: −log10 of the molar value. Like-named read-outs stand apart in the source and are kept apart here.
Key:
[1] = target: human TLR7 (Homo sapiens (Human), UniProt Q9NYK1); experiment: TLR7 inhibition reporter assay (HEK-Blue SEAP); format: cell-based; conditions: HEK-Blue cells overexpressing human TLR7, gardiquimod 7.5 μM stimulation
[2] = target: human TLR8 (Homo sapiens (Human), UniProt Q9NR97); experiment: TLR8 inhibition reporter assay (HEK-Blue SEAP);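 also: SEAP driven by IFN-β minimal promoter with five NF-κB and AP-1 sites, compounds tested 0.05 nM to 50 µM, 22 h incubation, inhibition relative to agonist plus DMSO wells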
[3] = target: human TLR9 (Homo sapiens (Human), UniProt Q9NR96); experiment: TLR9 inhibition reporter assay (HEK-Blue SEAP);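 also: SEAP driven by IFN-β minimal promoter carrying five NF-κB and AP-1 sites, 22 h at 37 °C, compounds 0.05 nM–50 µM, inhibition scaled between agonist-plus-DMSO and reference-inhibitor wells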
[4] = read-out: TLR8 IC50; HEK-Blue cells overexpressing human TLR8, R848 15.9 μM stimulation, SEAP reporter
[5] = read-out: TLR9 IC50; HEK-Blue cells overexpressing human TLR9, ODN2006 5 nM stimulation, SEAP reporter
[6] = read-out: TLR8 IC50; HEK-Blue cells overexpressing human TLR8; R848 15.9 μM stimulation; SEAP reporter
[7] = read-out: TLR9 IC50; HEK-Blue cells overexpressing human TLR9; ODN2006 5 nM stimulation; SEAP reporter

human TLR9, sequence (Q9NR96 26-1032): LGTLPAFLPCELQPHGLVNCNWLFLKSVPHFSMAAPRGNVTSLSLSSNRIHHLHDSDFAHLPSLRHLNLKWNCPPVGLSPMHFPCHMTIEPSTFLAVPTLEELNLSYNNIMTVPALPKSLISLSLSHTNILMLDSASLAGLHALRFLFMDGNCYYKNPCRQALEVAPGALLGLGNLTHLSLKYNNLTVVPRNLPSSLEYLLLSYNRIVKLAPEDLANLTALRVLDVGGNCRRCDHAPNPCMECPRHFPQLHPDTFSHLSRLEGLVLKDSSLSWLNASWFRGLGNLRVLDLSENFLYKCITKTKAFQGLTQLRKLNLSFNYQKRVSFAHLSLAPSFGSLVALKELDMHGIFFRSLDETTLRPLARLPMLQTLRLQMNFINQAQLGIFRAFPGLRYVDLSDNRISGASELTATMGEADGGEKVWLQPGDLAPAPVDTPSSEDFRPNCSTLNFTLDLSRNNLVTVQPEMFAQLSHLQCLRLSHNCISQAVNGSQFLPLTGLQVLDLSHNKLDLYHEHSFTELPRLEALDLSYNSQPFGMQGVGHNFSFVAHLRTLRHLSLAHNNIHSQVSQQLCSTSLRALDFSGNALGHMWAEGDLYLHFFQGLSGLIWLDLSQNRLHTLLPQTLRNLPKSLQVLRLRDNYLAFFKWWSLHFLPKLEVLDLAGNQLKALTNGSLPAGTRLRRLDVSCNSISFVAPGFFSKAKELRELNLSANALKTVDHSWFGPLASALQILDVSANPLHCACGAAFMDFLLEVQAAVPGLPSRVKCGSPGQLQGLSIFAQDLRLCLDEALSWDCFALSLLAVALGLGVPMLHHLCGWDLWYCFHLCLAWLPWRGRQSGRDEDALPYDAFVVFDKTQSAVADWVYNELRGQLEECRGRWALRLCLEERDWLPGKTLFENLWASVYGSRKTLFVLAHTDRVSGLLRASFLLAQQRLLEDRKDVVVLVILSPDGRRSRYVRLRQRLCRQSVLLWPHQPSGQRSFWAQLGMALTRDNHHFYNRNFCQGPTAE
human TLR8, sequence (Q9NR97 27-1041): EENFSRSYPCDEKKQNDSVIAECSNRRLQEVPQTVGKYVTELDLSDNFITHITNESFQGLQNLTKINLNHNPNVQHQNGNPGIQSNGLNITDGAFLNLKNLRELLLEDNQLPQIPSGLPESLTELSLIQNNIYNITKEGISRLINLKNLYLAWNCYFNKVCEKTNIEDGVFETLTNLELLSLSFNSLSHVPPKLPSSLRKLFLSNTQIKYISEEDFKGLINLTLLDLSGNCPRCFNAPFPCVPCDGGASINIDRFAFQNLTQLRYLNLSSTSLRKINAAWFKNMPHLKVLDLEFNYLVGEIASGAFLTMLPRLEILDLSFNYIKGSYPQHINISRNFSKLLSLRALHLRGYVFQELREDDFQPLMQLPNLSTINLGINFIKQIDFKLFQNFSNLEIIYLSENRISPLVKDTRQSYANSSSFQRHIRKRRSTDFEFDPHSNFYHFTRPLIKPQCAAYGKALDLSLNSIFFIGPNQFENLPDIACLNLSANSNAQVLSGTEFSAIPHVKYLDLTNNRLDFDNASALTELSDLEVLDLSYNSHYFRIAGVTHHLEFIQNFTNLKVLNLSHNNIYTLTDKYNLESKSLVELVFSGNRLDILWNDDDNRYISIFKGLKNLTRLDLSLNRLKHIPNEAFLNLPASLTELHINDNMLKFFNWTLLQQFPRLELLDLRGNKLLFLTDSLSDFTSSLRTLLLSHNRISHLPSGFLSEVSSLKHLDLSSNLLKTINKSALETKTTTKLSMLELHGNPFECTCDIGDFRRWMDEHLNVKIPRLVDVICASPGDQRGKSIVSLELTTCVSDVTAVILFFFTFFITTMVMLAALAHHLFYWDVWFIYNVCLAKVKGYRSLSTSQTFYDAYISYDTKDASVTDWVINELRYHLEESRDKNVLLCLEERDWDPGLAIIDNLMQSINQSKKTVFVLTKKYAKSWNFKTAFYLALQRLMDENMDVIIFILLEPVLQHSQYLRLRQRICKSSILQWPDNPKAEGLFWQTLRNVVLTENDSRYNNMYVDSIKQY
human TLR7, sequence (Q9NYK1 27-1049): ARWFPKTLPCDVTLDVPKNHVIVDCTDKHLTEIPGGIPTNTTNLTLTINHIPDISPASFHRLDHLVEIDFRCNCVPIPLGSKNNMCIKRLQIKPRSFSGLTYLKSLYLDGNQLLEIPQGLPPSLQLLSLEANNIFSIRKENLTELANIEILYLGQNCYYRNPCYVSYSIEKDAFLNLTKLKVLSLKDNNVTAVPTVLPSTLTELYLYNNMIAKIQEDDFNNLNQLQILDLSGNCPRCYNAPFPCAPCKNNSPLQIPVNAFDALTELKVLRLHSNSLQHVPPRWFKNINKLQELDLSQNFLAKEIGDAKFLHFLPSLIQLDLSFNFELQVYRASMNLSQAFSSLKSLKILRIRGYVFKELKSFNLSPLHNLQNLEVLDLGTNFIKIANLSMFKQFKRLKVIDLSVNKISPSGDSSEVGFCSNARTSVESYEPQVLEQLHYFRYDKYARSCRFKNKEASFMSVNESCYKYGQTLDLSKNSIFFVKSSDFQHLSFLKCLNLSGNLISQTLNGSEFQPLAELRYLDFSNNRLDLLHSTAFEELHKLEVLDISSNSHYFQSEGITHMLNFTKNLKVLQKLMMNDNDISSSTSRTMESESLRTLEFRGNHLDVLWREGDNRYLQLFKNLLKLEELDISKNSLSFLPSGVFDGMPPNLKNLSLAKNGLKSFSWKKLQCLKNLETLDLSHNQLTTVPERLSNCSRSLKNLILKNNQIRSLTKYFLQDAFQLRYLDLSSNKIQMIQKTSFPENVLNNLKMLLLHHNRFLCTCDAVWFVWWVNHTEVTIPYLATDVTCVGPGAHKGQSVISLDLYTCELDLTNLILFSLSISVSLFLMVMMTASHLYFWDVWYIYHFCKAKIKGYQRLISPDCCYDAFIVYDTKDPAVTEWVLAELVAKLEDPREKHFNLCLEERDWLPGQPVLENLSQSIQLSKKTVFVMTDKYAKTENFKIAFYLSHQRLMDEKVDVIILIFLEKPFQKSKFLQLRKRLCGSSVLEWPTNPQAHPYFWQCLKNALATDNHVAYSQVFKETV

| Structure (SMILES) | pIC50 [1] | pIC50 [2, 4] | pIC50 [3, 5] | pIC50 [2, 6] | pIC50 [3, 7] |
| --- | --- | --- | --- | --- | --- |
| Cc1c(-c2[nH]c3cnc(N4CCN(CC(C)C)C[C@H]4C)c(F)c3c2C(C)C)cn2ncnc2c1C [Example 460] | 8.00 | – | – | 8.36 | < 4.30 |
| COc1cc(-c2[nH]c3cnc(C4CCN(CC(C)(C)O)CC4)cc3c2C(C)C)cn2ncnc12 [Example 296] | 8.48 | 8.27 | 6.88 | – | – |
| Cc1c(-c2[nH]c3cnc(N4CCN(CC5CC5)C[C@H]4C)c(F)c3c2C(C)C)cn2ncnc2c1C [Example 459] | 8.80 | – | – | 9.27 | 4.86 |
| Cc1c(-c2[nH]c3cnc(C4CCN(CC(N)=O)CC4)c(F)c3c2C(C)C)cn2ncnc2c1C [Example 15] | 8.46 | 8.80 | 4.87 | – | – |
| COc1cc(-c2[nH]c3cnc(N4CCN(CC(F)(F)F)C[C@H]4C)c(F)c3c2C(C)C)cn2ncnc12 [Example 449] | 7.43 | 6.77 | < 4.30 | – | – |
| Cc1c(-c2[nH]c3cnc(N4CCN(CC(=O)N(C)C)CC4)c(F)c3c2C(C)C)cn2ncnc2c1C [Example 428] | 7.92 | 8.96 | 4.40 | – | – |
| Cc1c(-c2[nH]c3cnc(C4CCC(NCC(C)(C)C)CC4)c(F)c3c2C(C)C)cn2ncnc2c1C (centres unmarked) [Example 200] | 8.52 | 8.96 | 5.06 | – | – |
| Cc1c(-c2[nH]c3cnc(N4CCN(C(=O)CN(C)C)C[C@H]4C)c(F)c3c2C(C)C)cn2ncnc2c1C [Example 470] | 8.31 | – | – | 9.31 | 4.81 |
| Cc1c(-c2[nH]c3cnc(N4CCN(CC(=O)N(C)C)C[C@H]4C)c(F)c3c2C(C)C)cn2ncnc2c1C [Example 466] | 7.80 | – | – | 8.60 | 4.32 |
| COc1ccc(-c2[nH]c3cnc(C4CCN(C5CCN(CC(C)C)CC5)CC4)cc3c2C)cc1OC [Example 9] | 6.26 | 5.08 | 7.59 | – | – |
| COc1cc(-c2[nH]c3cnc(N4CC5(CN(CC6(C)COC6)C5)C4)c(F)c3c2C(C)C)cn2ncnc12 [Example 376] | 8.02 | < 5.51 | 5.22 | – | – |
| COc1cc(-c2[nH]c3cnc(C4CCC(NCC5(C)COC5)CC4)c(F)c3c2C(C)C)cn2ncnc12 (centres unmarked) [Example 193] | 9.08 | 9.40 | 5.90 | – | – |
| COc1cc(-c2[nH]c3cnc(C4CCN(CC(N)=O)CC4)c(F)c3c2C(C)C)cn2ncnc12 [Example 19] | 8.70 | 8.52 | 5.75 | – | – |
| Cc1cc(-c2[nH]c3cnc(C4CCC(NCC(C)(C)C)CC4)c(F)c3c2C(C)C)cn2ncnc12 (centres unmarked) [Example 48] | 7.92 | 7.89 | 5.02 | – | – |
| Cc1c(N2CCC(NC3CCOCC3)CC2)ncc2[nH]c(-c3cc(C)c4ncnn4c3)c(C(C)C)c12 [Example 265] | 9.44 | 9.38 | 5.99 | – | – |
| Cc1c(-c2[nH]c3cnc(C4CCC(NC5CCOCC5)CC4)c(F)c3c2C(C)C)cn2ncnc2c1C (centres unmarked) [Example 232] | 7.96 | – | – | 8.49 | 5.35 |

| Structure (SMILES) | pIC50 [1] | pIC50 [2, 4] | pIC50 [3, 5] | pIC50 [2, 6] | pIC50 [3, 7] |
| --- | --- | --- | --- | --- | --- |
| COCCNC1CCC(c2cc3c(C(C)C)c(-c4cn5ncnc5c(C)c4C)[nH]c3cn2)CC1 (centres unmarked) [Example 348] | 8.46 | 8.05 | 6.33 | – | – |
| COc1cc(-c2[nH]c3cnc(C4CCC(N5CC6(COC6)C5)CC4)c(C)c3c2C(C)C)cn2ncnc12 (centres unmarked) [Example 246] | 8.70 | 7.77 | 6.15 | – | – |
| Cc1c(-c2[nH]c3cnc(N4CCN(CCS(C)(=O)=O)C[C@H]4C)c(F)c3c2C(C)C)cn2ncnc2c1C [Example 463] | 8.05 | – | – | 8.28 | 4.41 |
| Cc1c(-c2[nH]c3cnc(C4CCC(NC[C@@H](F)C(C)(C)O)CC4)c(F)c3c2C(C)C)cn2ncnc2c1C (some centres unmarked) [Example 240] | 9.02 | 9.41 | 5.56 | – | – |
| Cc1c(-c2[nH]c3cnc(N4CCN(CC(N)=O)CC4)c(C)c3c2C(C)C)cn2ncnc2c1C [Example 414] | 7.39 | 8.21 | < 4.30 | – | – |
| Cc1c(-c2[nH]c3cnc(C4CCC(NC5COC5)CC4)c(F)c3c2C(C)C)cn2ncnc2c1C (centres unmarked) [Example 267] | 8.16 | 8.72 | 4.78 | – | – |
| Cc1cc(-c2[nH]c3cnc(C4CCN(CC(C)(C)O)CC4)c(F)c3c2C(C)C)cn2ncnc12 [Example 128] | 8.72 | 8.85 | 5.61 | – | – |
| CNCC(=O)N1CCN(c2ncc3[nH]c(-c4cc(OC)c5ncnn5c4)c(C(C)C)c3c2Cl)CC1 [Example 291] | 8.52 | 8.31 | 6.31 | – | – |
| COc1cc(-c2[nH]c3cnc(C4CCC(N(C)C5COC5)CC4)c(F)c3c2C(C)C)cn2ncnc12 (centres unmarked) [Example 197] | 9.52 | 9.36 | 5.80 | – | – |
| COc1cc(-c2[nH]c3cnc(C4CCC(NC5COC5)C4)cc3c2C(C)C)cn2ncnc12 (centres unmarked) [Example 178] | 8.15 | 8.57 | 6.49 | – | – |
| COc1cc(-c2[nH]c3cnc(N4CCN(CC(=O)N(C)C)CC4)c(F)c3c2C(C)C)cn2ncnc12 [Example 360] | 8.54 | 8.82 | 4.64 | – | – |
| COc1cc(-c2[nH]c3cnc(N4CCC(NC5CCOC5)CC4)c(F)c3c2C(C)C)cn2ncnc12 (centres unmarked) [Example 190] | 9.11 | 9.66 | 6.06 | – | – |
| Cc1c(-c2[nH]c3cnc(C4CCNCC4)c(F)c3c2C(C)C)cn2ncnc2c1C [Example 13] | 8.19 | 8.17 | 5.56 | – | – |
| COCCN1CCC(c2ncc3[nH]c(-c4cc(OC)c5ncnn5c4)c(C(C)C)c3c2F)CC1 [Example 21] | 8.70 | 8.57 | 5.48 | – | – |
| Cc1c(-c2[nH]c3cnc(C4CCC(NC(C)C)CC4)cc3c2C(C)C)cn2ncnc2c1C (centres unmarked) [Example 326] | 7.85 | 7.11 | 5.91 | – | – |

Continued by rising pIC50 [1], values first:

| pIC50 [1] | pIC50 [2, 4] | pIC50 [3, 5] | pIC50 [2, 6] | pIC50 [3, 7] | Structure (SMILES) |
| --- | --- | --- | --- | --- | --- |
| 7.33 | 6.82 | < 4.30 | – | – | COc1cc(-c2[nH]c3cnc(C4CCN(CC(F)(F)F)CC4)c(F)c3c2C(C)C)cn2ncnc12 [Example 127] |
| 7.80 | 7.37 | 4.44 | – | – | Cc1c(N2CCC(N3CCS(=O)(=O)CC3)CC2)ncc2[nH]c(-c3cc(C)c4ncnn4c3)c(C(C)C)c12 [Example 281] |
| 7.96 | 7.89 | 6.15 | – | – | COc1cc(-c2[nH]c3cnc(N4CCC(NCC(N)=O)CC4)cc3c2C(C)C)cn2ncnc12 [Example 345] |
| 8.02 | 7.48 | 7.10 | – | – | CCN(C)C1CCC(c2cc3c(C(C)C)c(-c4cc(OC)c5ncnn5c4)[nH]c3cn2)CC1 (centres unmarked) [Example 316] |
| 8.07 | 7.80 | 6.42 | – | – | COc1cc(-c2[nH]c3cnc(C4CCC(NC5COC5)C4)cc3c2C(C)C)cn2ncnc12 (centres unmarked) [Example 273] |
| 8.20 | 9.41 | 4.75 | – | – | COCCN1CCN(c2ncc3[nH]c(-c4cn5ncnc5c(C)c4C)c(C(C)C)c3c2F)CC1 [Example 424] |
| 8.25 | 8.11 | 5.83 | – | – | CCCN1CC2(C1)CN(c1ncc3[nH]c(-c4cc(OC)c5ncnn5c4)c(C(C)C)c3c1F)C2 [Example 380] |
| 8.27 | 9.23 | 4.37 | – | – | Cc1c(-c2[nH]c3cnc(N4CCN(CC(=O)N5CCOCC5)CC4)c(F)c3c2C(C)C)cn2ncnc2c1C [Example 423] |
| 8.33 | 7.85 | 5.92 | – | – | CNCC(=O)N1CCN(c2ncc3[nH]c(-c4cc(OC)c5ncnn5c4)c(C(C)C)c3c2C)CC1 [Example 98] |
| 8.42 | 7.96 | 4.73 | – | – | Cc1cc(-c2[nH]c3cnc(C4CCN(C5COC5)CC4)c(F)c3c2C(C)C)cn2ncnc12 [Example 182] |
| 8.60 | 8.57 | < 4.30 | – | – | CNC(=O)CN1CCN(c2ncc3[nH]c(-c4cc(OC)c5ncnn5c4)c(C(C)C)c3c2F)CC1 [Example 359] |
| 8.66 | 8.72 | 5.56 | – | – | Cc1cc(-c2[nH]c3cnc(N4CCC(N(C)CC(=O)N(C)C)CC4)c(F)c3c2C(C)C)cn2ncnc12 [Example 45] |
| 8.68 | 8.70 | 5.82 | – | – | Cc1cc(-c2[nH]c3cnc(C4CCN(C5CCOCC5)CC4)c(F)c3c2C(C)C)cn2ncnc12 [Example 187] |
| 8.80 | 9.02 | 5.68 | 9.02 | 5.68 | Cc1c(-c2[nH]c3cnc(N4CCC(NC5COC5)CC4)c(C)c3c2C(C)C)cn2ncnc2c1C [Example 237] |
| 8.82 | 9.27 | 6.19 | – | – | COC(C)(C)CNC1CCN(c2ncc3[nH]c(-c4cn5ncnc5c(C)c4C)c(C(C)C)c3c2C)CC1 [Example 173] |
| 8.89 | 8.38 | 5.88 | – | – | Cc1cc(-c2[nH]c3cnc(C4CCC(N5CCC5)CC4)c(F)c3c2C(C)C)cn2ncnc12 (centres unmarked) [Example 262] |
| 9.10 | 9.60 | 5.63 | – | – | COc1cc(-c2[nH]c3cnc(N4CCC(NC5CCOCC5)CC4)c(F)c3c2C(C)C)cn2ncnc12 [Example 100] |
| 9.21 | 9.57 | 5.69 | – | – | COc1cc(-c2[nH]c3cnc(N4CCC(NCC5(C)COC5)CC4)c(C)c3c2C(C)C)cn2ncnc12 [Example 147] |
| 9.39 | – | – | 9.11 | 5.77 | Cc1cc(-c2[nH]c3cnc(C4CCC(NC(C)C)CC4)c(F)c3c2C(C)C)cn2ncnc12 (centres unmarked) [Example 230] |

— US11912703B2, “6-azaindole compounds” (BRISTOL-MYERS SQUIBB COMPANY, priority 2017, dated 2024)
